Values joined by “and” are separate entries in the source; they are usually repeats but may differ in a detail not shown here. Identical values can stand only once. Inconclusive results and toxic doses are left out. Rule as the data show it: active = T/C of 150% or more; inactive = T/C below 125%.
System: L1210 leukemia ip in BDF1 mice, survival T/C
Test: NCI In Vivo Anticancer Drug Screen. Data for tumor model L1210 Leukemia (intraperitoneal) in B6D2F1 (BDF1) mice
Conditions: endpoint: mean survival time, higher = longer survival
Outline: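 Transplantable tumor model; survival measured in treated vs vehicle control mice. Value = treated/control.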

[1] = dose: 100.0 mg/kg/injection, schedule: Q01DX001 (ip), vehicle: Klucel (hydroxypropylcellulose) (HPC)
[2] = dose: 100.0 mg/kg/injection, schedule: Q01DX009 (ip), vehicle: Klucel (hydroxypropylcellulose) (HPC)
[3] = dose: 200.0 mg/kg/injection, schedule: Q01DX001 (ip), vehicle: Klucel (hydroxypropylcellulose) (HPC)
[4] = dose: 200.0 mg/kg/injection, schedule: Q01DX009 (ip), vehicle: Klucel (hydroxypropylcellulose) (HPC)
[5] = dose: 400.0 mg/kg/injection, schedule: Q01DX001 (ip), vehicle: Klucel (hydroxypropylcellulose) (HPC)
[6] = dose: 400.0 mg/kg/injection, schedule: Q01DX009 (ip), vehicle: Klucel (hydroxypropylcellulose) (HPC)
[7] = dose: 100.0 mg/kg/injection, schedule: Q04DX003 (ip), vehicle: saline with Tween-80
[8] = dose: 200.0 mg/kg/injection, schedule: Q04DX003 (ip), vehicle: saline with Tween-80
[9] = dose: 50.0 mg/kg/injection, schedule: Q01DX001 (ip), vehicle: saline
[10] = dose: 100.0 mg/kg/injection, schedule: Q01DX001 (ip), vehicle: saline
[11] = dose: 200.0 mg/kg/injection, schedule: Q01DX001 (ip), vehicle: saline
[12] = dose: 400.0 mg/kg/injection, schedule: Q01DX001 (ip), vehicle: saline
[13] = dose: 100.0 mg/kg/injection, schedule: Q01DX001 (ip), vehicle: saline with Tween-80
[14] = dose: 200.0 mg/kg/injection, schedule: Q01DX001 (ip), vehicle: saline with Tween-80

Measured: T/C

O=[N+]([O-])c1ccc(N/N=C/c2cccnc2)cc1
inactive: [1] 96 % of control | [2] 92 % of control | [3] 95 % of control | [4] 90 % of control | [5] 88 % of control | [6] 101 % of control

O=C(COc1ccc(Cl)c(Cl)c1)N(Cc1ccccc1)Cc1ccc[n+](Cc2ccc(S(=O)(=O)F)cc2)c1
inactive: [7] 102 % of control | [8] 96 % of control

CC(=O)N(C)c1ccc(S(=O)(=O)F)cc1
inactive: [1] 103 % of control | [3] 103 % of control

COc1ccc(Sc2cccc3c2C(=O)c2c(Sc4ccc(OC)cc4)cccc2C3=O)cc1
inactive: [7] 91 % of control | [8] 96 % of control | dose: 400.0 mg/kg/injection, schedule: Q04DX003 (ip), vehicle: saline with Tween-80 87 % of control

CC(=O)OCC1OC(COC(C)=O)(c2ccc(C)cc2)C(OC(C)=O)C1OC(C)=O (stereo unspecified)
inactive: [9] 97 % of control | [10] 103 % of control | [11] 94 % of control | [12] 100 % of control

O=C(CCCN1CCC(O)CC1)c1ccccc1
inactive: dose: 100.0 mg/kg/injection, schedule: Q04DX003 (ip), vehicle: saline 90 % of control | dose: 200.0 mg/kg/injection, schedule: Q04DX003 (ip), vehicle: saline 104 % of control

CCCCCC(=O)N(CCCC)CCCC
inactive: dose: 100.0 mg/kg/injection, schedule: Q01DX001 (ip), vehicle: carboxymethylcellulose (CMC) 103 % of control | dose: 100.0 mg/kg/injection, schedule: Q01DX009 (ip), vehicle: carboxymethylcellulose (CMC) 97 % of control and 98 % of control | dose: 100.0 mg/kg/injection, schedule: Q04DX002 (ip), vehicle: carboxymethylcellulose (CMC) 102 % of control and 103 % of control | dose: 100.0 mg/kg/injection, schedule: Q04DX003 (ip), vehicle: carboxymethylcellulose (CMC) 98 % of control | dose: 200.0 mg/kg/injection, schedule: Q01DX001 (ip), vehicle: carboxymethylcellulose (CMC) 110 % of control | dose: 200.0 mg/kg/injection, schedule: Q01DX009 (ip), vehicle: carboxymethylcellulose (CMC) 94 % of control and 103 % of control | dose: 200.0 mg/kg/injection, schedule: Q04DX002 (ip), vehicle: carboxymethylcellulose (CMC) 97 % of control and 105 % of control | dose: 200.0 mg/kg/injection, schedule: Q04DX003 (ip), vehicle: carboxymethylcellulose (CMC) 97 % of control | dose: 400.0 mg/kg/injection, schedule: Q01DX001 (ip), vehicle: carboxymethylcellulose (CMC) 106 % of control | dose: 400.0 mg/kg/injection, schedule: Q01DX009 (ip), vehicle: carboxymethylcellulose (CMC) 98 % of control | dose: 400.0 mg/kg/injection, schedule: Q04DX002 (ip), vehicle: carboxymethylcellulose (CMC) 97 % of control and 109 % of control | dose: 400.0 mg/kg/injection, schedule: Q04DX003 (ip), vehicle: carboxymethylcellulose (CMC) 97 % of control

CN1CCC(=C2c3ccccc3C(O)c3ccccc32)CC1 (stereo unspecified)
inactive: dose: 3.12 mg/kg/injection, schedule: Q01DX009 (ip), vehicle: Klucel (hydroxypropylcellulose) (HPC) 98 % of control | dose: 6.25 mg/kg/injection, schedule: Q01DX009 (ip), vehicle: Klucel (hydroxypropylcellulose) (HPC) 96 % of control | dose: 12.5 mg/kg/injection, schedule: Q01DX009 (ip), vehicle: Klucel (hydroxypropylcellulose) (HPC) 93 % of control | dose: 25.0 mg/kg/injection, schedule: Q04DX003 (ip), vehicle: Klucel (hydroxypropylcellulose) (HPC) 98 % of control | dose: 50.0 mg/kg/injection, schedule: Q01DX009 (ip), vehicle: Klucel (hydroxypropylcellulose) (HPC) 93 % of control | dose: 50.0 mg/kg/injection, schedule: Q04DX003 (ip), vehicle: Klucel (hydroxypropylcellulose) (HPC) 98 % of control

Nc1nnn(CCO)n1
inactive: dose: 100.0 mg/kg/injection, schedule: Q04DX003 (ip), vehicle: saline sonified 105 % of control | dose: 200.0 mg/kg/injection, schedule: Q04DX003 (ip), vehicle: saline sonified 102 % of control | dose: 400.0 mg/kg/injection, schedule: Q04DX003 (ip), vehicle: saline sonified 96 % of control

O=c1[nH]cc(COCC(F)(F)C(F)F)c(=O)[nH]1
inactive: dose: 50.0 mg/kg/injection, schedule: Q01DX005 (ip), vehicle: other 101 % of control | dose: 100.0 mg/kg/injection, schedule: Q01DX005 (ip), vehicle: other 104 % of control | dose: 200.0 mg/kg/injection, schedule: Q01DX005 (ip), vehicle: other 95 % of control | dose: 400.0 mg/kg/injection, schedule: Q01DX005 (ip), vehicle: other 95 % of control

O=C(N/N=C\c1ccc(Cl)cc1Cl)c1ccco1
inactive: dose: 100.0 mg/kg/injection, schedule: Q01DX001 (ip), vehicle: other 90 % of control | dose: 200.0 mg/kg/injection, schedule: Q01DX001 (ip), vehicle: other 96 % of control | dose: 400.0 mg/kg/injection, schedule: Q01DX001 (ip), vehicle: other 93 % of control

O=C(O)c1ccccc1Oc1ccccc1
inactive: [13] 94 % of control | [14] 91 % of control | dose: 400.0 mg/kg/injection, schedule: Q01DX001 (ip), vehicle: saline with Tween-80 91 % of control

CCOC(=O)c1ccc(N)cc1
inactive: dose: 37.5 mg/kg/injection, schedule: Q01DX009 (ip), vehicle: saline with Tween-80 107 % of control | dose: 50.0 mg/kg/injection, schedule: Q01DX001 (ip), vehicle: saline with Tween-80 97 % of control | dose: 75.0 mg/kg/injection, schedule: Q01DX009 (ip), vehicle: saline with Tween-80 107 % of control | [13] 105 % of control | dose: 150.0 mg/kg/injection, schedule: Q01DX009 (ip), vehicle: saline with Tween-80 91 % of control | [14] 94 % of control

CCC(=O)c1c(C)[nH]c(C)c1C
inactive: [1] 96 % of control | [3] 95 % of control | [5] 96 % of control

COc1ccc(OC)c(CBr)c1CBr
inactive: dose: 5.0 mg/kg/injection, schedule: Q01DX001 (ip), vehicle: saline 101 % of control | dose: 10.0 mg/kg/injection, schedule: Q01DX001 (ip), vehicle: saline 98 % of control | dose: 20.0 mg/kg/injection, schedule: Q01DX001 (ip), vehicle: saline 101 % of control | dose: 40.0 mg/kg/injection, schedule: Q01DX001 (ip), vehicle: saline 98 % of control | dose: 80.0 mg/kg/injection, schedule: Q01DX001 (ip), vehicle: saline 104 % of control

COc1ccc(OC)c(NC(=O)Nc2ccccc2C(F)(F)F)c1
inactive: [2] 102 % of control | [4] 89 % of control | [6] 95 % of control

Nc1nc(NCCCc2ccccc2)c2[nH]cnc2n1
inactive: dose: 12.5 mg/kg/injection, schedule: Q04DX002 (ip), vehicle: Klucel (hydroxypropylcellulose) (HPC) 98 % of control | dose: 25.0 mg/kg/injection, schedule: Q04DX002 (ip), vehicle: Klucel (hydroxypropylcellulose) (HPC) 95 % of control | dose: 50.0 mg/kg/injection, schedule: Q04DX002 (ip), vehicle: Klucel (hydroxypropylcellulose) (HPC) 102 % of control

[O-]/[N+](=C\c1cccc(Cl)c1)c1ccccc1
inactive: [9] 102 % of control | [10] 100 % of control | dose: 100.0 mg/kg/injection, schedule: Q04DX003 (ip), vehicle: Klucel (hydroxypropylcellulose) (HPC) 107 % of control | [11] 100 % of control | dose: 200.0 mg/kg/injection, schedule: Q04DX003 (ip), vehicle: Klucel (hydroxypropylcellulose) (HPC) 100 % of control | [12] 112 % of control

— PubChem BioAssay AID248 (DTP/NCI, 2004)
